Measurements: patent US20060069132A1, “Azolecarboxamide herbicides” (priority 2004, published 2006)

Assays:
[1] = tested on: cocklebur; assay: Test B pre-/postemergence herbicide test; format: in vivo, Xanthium strumarium; settings: for Plant response rating (0 to 100 scale), Cocklebur: 0 is no effect, preemergence
How it was run: (§1)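 Evaluation is visual, comparing treated with control plants on a scale where 0 means no effect and 100 means full control. Treatments were preemergence, or postemergence on seedlings 2–18 cm tall, and held 13–15 days in the greenhouse.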

[2] = tested on: barnyardgrass; assay: Test B flooded paddy test; format: in vivo, Echinochloa crus-galli; settings: 1000 g ai/ha, scale 0 to 100 (0 no effect, 100 complete control)
How it was run: (§2)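 Each value is a visual 0–100 response rating taken against controls 13 to 15 days after treatment in the greenhouse. Plants received formulated chemical postemergence at the 1- to 4-leaf stage or, in flooded paddy, at the 2-leaf stage.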

[3] = tested on: rice; assay: Test B flooded paddy test; format: in vivo, Oryza sativa; settings: 1000 g ai/ha, scale 0 to 100 (0 no effect, 100 complete control)
How it was run: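 Plants grow to 1- to 4-leaf stage (2–18 cm) for postemergence spraying, or to 2-leaf stage for the paddy test. Formulated compound is applied. Greenhouse holding lasts 13–15 days. Response is scored visually relative to controls, 0 no effect to 100 complete control; a dash means no result.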

[4] = tested on: morningglory; assay: Test B pre-/postemergence herbicide test; format: in vivo, Ipomoea coccinea; settings: for Plant response rating (0 to 100 scale), Morningglory: 0 is no effect, 100 is complete control, preemergence; for Morningglory plant response rating: scale 0 (no effect) to 100 (complete control)
How it was run: as §1

[5] = tested on: velvetleaf; assay: Test B pre-/postemergence herbicide test; format: in vivo, Abutilon theophrasti; settings: for Plant response rating (0 to 100 scale), Velvetleaf: 0 is no effect, 100 is complete control, preemergence; for Velvetleaf plant response rating: scale 0 (no effect) to 100 (complete control)
How it was run: (§3)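 Pre: seeds sown, then sprayed. Post: 1–4-leaf plants (2–18 cm) sprayed at the same time. Paddy: flooded, treated at 2-leaf stage. Formulation: non-phytotoxic solvent with surfactant. Greenhouse 13–15 days; visual 0–100 score relative to controls.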

[6] = tested on: lambsquarters; assay: Test B pre-/postemergence herbicide test; format: in vivo, Chenopodium album; settings: for Plant response rating (0 to 100 scale), Lambsquarters: 0 is no effect, 100 is complete control, preemergence; for Lambsquarters plant response rating: scale 0 (no effect) to 100 (complete control)
How it was run: as §3

[7] = tested on: blackgrass; assay: Test B postemergence herbicide test; format: in vivo, Alopecurus myosuroides
How it was run: as §2

[8] = tested on: wheat; assay: Test B postemergence herbicide test; format: in vivo, Triticum aestivum; design: key to Wheat plant response rating: 0 = no effect, 100 = complete control
How it was run: as §2

[9] = tested on: corn; assay: Test B pre-/postemergence herbicide test; format: in vivo, Zea mays; settings: for Plant response rating (0 to 100 scale), Corn: 0 is no effect, preemergence
How it was run: as §3

[10] = tested on: giant foxtail; assay: Test B pre-/postemergence herbicide test; format: in vivo, Setaria faberi; settings: for Plant response rating (0 to 100 scale), Foxtail, Giant: 0 is no effect, preemergence
How it was run: as §3

[11] = tested on: ducksalad; assay: Test B flooded paddy test; format: in vivo, Heteranthera limosa; settings: 1000 g ai/ha, scale 0 to 100 (0 no effect, 100 complete control)
How it was run: as §2

[12] = tested on: small flower umbrella sedge; assay: Test B flooded paddy test; format: in vivo, Cyperus difformis; settings: 1000 g ai/ha, scale 0 to 100 (0 no effect, 100 complete control)
How it was run: as §2

[13] = tested on: wild oat; assay: Test B postemergence herbicide test; format: in vivo, Avena fatua; settings: scale 0 (no effect) to 100 (complete control)
How it was run: as §2

[14] = tested on: large crabgrass; assay: Test B pre-/postemergence herbicide test; format: in vivo, Digitaria sanguinalis; settings: for Plant response rating (0 to 100 scale), Crabgrass, Large: 0 is no effect, preemergence
How it was run: as §3

[15] = tested on: pigweed; assay: Test B pre-/postemergence herbicide test; format: in vivo, Amaranthus retroflexus; settings: for Plant response rating (0 to 100 scale), Pigweed: 0 is no effect, 100 is complete control, preemergence; for Pigweed plant response rating: scale 0 (no effect) to 100 (complete control)
How it was run: as §3

[16] = tested on: Surinam grass; assay: Test B pre-/postemergence herbicide test; format: in vivo, Urochloa decumbens; settings: for Plant response rating (0 to 100 scale), Surinam Grass: 0 is no effect, 100 is complete control, preemergence; for Surinam Grass plant response rating: scale 0 (no effect) to 100 (complete control)
How it was run: as §3

[17] = tested on: barnyardgrass; assay: Test B pre-/postemergence herbicide test; format: in vivo, Echinochloa crus-galli; settings: for Plant response rating (0 to 100 scale), Barnyardgrass: 0 is no effect, preemergence
How it was run: as §1

[18] = 125 g ai/ha, 100 is complete control
[19] = 125 g ai/ha, visual rating, scale 0 (no effect) to 100 (complete control), postemergence
[20] = postemergence, 500 g ai/ha, scale 0 to 100, 0 is no effect, 100 is complete control
[21] = 125 g ai/ha, visual rating, postemergence
[22] = 500 g ai/ha, scale 0 to 100, 0 no effect, 100 complete control, preemergence
[23] = Postemergence, 500 g ai/ha, scale 0 (no effect) to 100 (complete control)

SMILES: CCc1nn(C(C)(C)C)nc1C(=O)Nc1cc(C(=O)N2CCCCC2)ccc1F [Compound 381]
- Plant response rating (0 to 100 scale), Cocklebur [1, 18]: 0
- Cocklebur plant response rating [1, 19]: 20
- Cocklebur plant response rating [1, 20]: 20
- Barnyardgrass plant response rating [2]: 10
- Rice plant response rating [3]: 60
- Plant response rating (0 to 100 scale), Morningglory ([4]; 125 g ai/ha): 0
- Morningglory plant response rating [4, 21]: 20
- Morningglory plant response rating ([4]; Postemergence, 500 g ai/ha): 80
- Plant response rating (0 to 100 scale), Velvetleaf ([5]; 125 g ai/ha): 10
- Velvetleaf plant response rating [5, 21]: 10
- Velvetleaf plant response rating ([5]; Postemergence, 500 g ai/ha): 40
- Plant response rating (0 to 100 scale), Lambsquarters ([6]; 125 g ai/ha): 40
- Lambsquarters plant response rating [6, 21]: 70
- Lambsquarters plant response rating ([6]; Postemergence, 500 g ai/ha): 80
- Blackgrass plant response rating [7, 19]: 20
- Blackgrass plant response rating [7, 20]: 30
- Wheat plant response rating [8, 19]: 10
- Wheat plant response rating [8, 22]: 20
- Wheat plant response rating [8, 23]: 20
- Plant response rating (0 to 100 scale), Corn [9, 18]: 0
- Corn plant response rating [9, 19]: 0
- Corn plant response rating [9, 20]: 10
- Plant response rating (0 to 100 scale), Foxtail, Giant [10, 18]: 10
- Foxtail, Giant plant response rating [10, 19]: 10
- Foxtail, Giant plant response rating [10, 20]: 20
- Ducksalad plant response rating [11]: 70
- Sedge, Umbrella plant response rating [12]: 70
- Oat, Wild plant response rating [13, 21]: 10
- Oat, Wild plant response rating ([13]; Postemergence, 500 g ai/ha): 20
- Plant response rating (0 to 100 scale), Crabgrass, Large [14, 18]: 70
- Crabgrass, Large plant response rating [14, 19]: 10
- Crabgrass, Large plant response rating [14, 20]: 20
- Plant response rating (0 to 100 scale), Pigweed ([15]; 125 g ai/ha): 0
- Pigweed plant response rating [15, 21]: 20
- Pigweed plant response rating ([15]; Postemergence, 500 g ai/ha): 30
- Plant response rating (0 to 100 scale), Surinam Grass ([16]; 125 g ai/ha): 20
- Surinam Grass plant response rating [16, 21]: 10
- Surinam Grass plant response rating ([16]; Postemergence, 500 g ai/ha): 40
- Plant response rating (0 to 100 scale), Barnyardgrass [17, 18]: 10
- Barnyardgrass plant response rating [17, 19]: 0
- Barnyardgrass plant response rating [17, 20]: 0

SMILES: COC(=O)c1ccc(F)c(NC(=O)c2nn(C(C)C)nc2C)c1 [Compound 398]
- Plant response rating (0 to 100 scale), Cocklebur [1, 18]: 0
- Cocklebur plant response rating [1, 19]: 0
- Cocklebur plant response rating [1, 23]: 10
- Barnyardgrass plant response rating [2]: 0
- Rice plant response rating [3]: 10
- Plant response rating (0 to 100 scale), Morningglory ([4]; 125 g ai/ha): 0
- Morningglory plant response rating [4, 21]: 0
- Morningglory plant response rating ([4]; Postemergence, 500 g ai/ha): 20
- Plant response rating (0 to 100 scale), Velvetleaf ([5]; 125 g ai/ha): 0
- Velvetleaf plant response rating [5, 21]: 20
- Velvetleaf plant response rating ([5]; Postemergence, 500 g ai/ha): 60
- Plant response rating (0 to 100 scale), Lambsquarters ([6]; 125 g ai/ha): 0
- Lambsquarters plant response rating [6, 21]: 10
- Lambsquarters plant response rating ([6]; Postemergence, 500 g ai/ha): 10
- Blackgrass plant response rating [7, 19]: 0
- Blackgrass plant response rating [7, 23]: 10
- Wheat plant response rating [8, 19]: 0
- Wheat plant response rating [8, 22]: 0
- Wheat plant response rating [8, 23]: 10
- Plant response rating (0 to 100 scale), Corn [9, 18]: 0
- Corn plant response rating [9, 19]: 0
- Corn plant response rating [9, 23]: 20
- Plant response rating (0 to 100 scale), Foxtail, Giant [10, 18]: 0
- Foxtail, Giant plant response rating [10, 19]: 20
- Foxtail, Giant plant response rating [10, 23]: 30
- Ducksalad plant response rating [11]: 0
- Sedge, Umbrella plant response rating [12]: 80
- Oat, Wild plant response rating [13, 21]: 0
- Oat, Wild plant response rating ([13]; Postemergence, 500 g ai/ha): 0
- Plant response rating (0 to 100 scale), Crabgrass, Large [14, 18]: 0
- Crabgrass, Large plant response rating [14, 19]: 0
- Crabgrass, Large plant response rating [14, 23]: 10
- Plant response rating (0 to 100 scale), Pigweed ([15]; 125 g ai/ha): 0
- Pigweed plant response rating [15, 21]: 0
- Pigweed plant response rating ([15]; Postemergence, 500 g ai/ha): 10
- Plant response rating (0 to 100 scale), Surinam Grass ([16]; 125 g ai/ha): 0
- Surinam Grass plant response rating [16, 21]: 10
- Surinam Grass plant response rating ([16]; Postemergence, 500 g ai/ha): 10
- Plant response rating (0 to 100 scale), Barnyardgrass [17, 18]: 0
- Barnyardgrass plant response rating [17, 19]: 0
- Barnyardgrass plant response rating [17, 23]: 0
